Reference: paper PMC9571063 (Molecules, 2022)

Key:
panel of 468 kinases = assay: KINOMEscan, whole panel selectivity score; assay type: binding, human; details: 1 µM; non-mutant kinases with %Ctrl < 25 / 403 non-mutant kinases tested
[1] = biological target: T1, ABL1(F317L)-nonphosphorylated (Homo sapiens, UniProt P00519, F317L); assay: KINOMEscan; assay type: binding; details: read-out: Percent Control
T1 construct: purchased Eurofins DiscoverX KINOMEscan (scanMAX 468)

ABL1-nonphosphorylated = biological target: T2, ABL1-nonphosphorylated (Homo sapiens, UniProt P00519); assay: KINOMEscan; assay type: binding; details: read-out: Percent Control
T2 construct: purchased Eurofins DiscoverX KINOMEscan (scanMAX 468)

ABL1-phosphorylated = biological target: T3, ABL1-phosphorylated (Homo sapiens, UniProt P00519); assay: KINOMEscan; assay type: binding; details: read-out: Percent Control
T3 construct: purchased Eurofins DiscoverX KINOMEscan (scanMAX 468)

AKT3 = biological target: T4, AKT3 (Homo sapiens, UniProt Q9Y243); assay: KINOMEscan; assay type: binding; details: read-out: Percent Control
T4 construct: purchased Eurofins DiscoverX KINOMEscan (scanMAX 468)

BTK = biological target: T5, BTK (Homo sapiens, UniProt Q06187); assay: KINOMEscan; assay type: binding; details: read-out: Percent Control
T5 construct: purchased Eurofins DiscoverX KINOMEscan (scanMAX 468)

CASK = biological target: T6, CASK (Homo sapiens, UniProt O14936); assay: KINOMEscan; assay type: binding; details: read-out: Percent Control
T6 construct: purchased Eurofins DiscoverX KINOMEscan (scanMAX 468)

CDK3 = biological target: T7, CDK3 (Homo sapiens, UniProt Q00526); assay: KINOMEscan; assay type: binding; details: read-out: Percent Control
T7 construct: purchased Eurofins DiscoverX KINOMEscan (scanMAX 468)

EGFR(G719S) = biological target: T8, EGFR(G719S) (Homo sapiens, UniProt P00533, G719S); assay: KINOMEscan; assay type: binding; details: read-out: Percent Control
T8 construct: purchased Eurofins DiscoverX KINOMEscan (scanMAX 468)

EPHA3 = biological target: T9, EPHA3 (Homo sapiens, UniProt P29320); assay: KINOMEscan; assay type: binding; details: read-out: Percent Control
T9 construct: purchased Eurofins DiscoverX KINOMEscan (scanMAX 468)

EPHA4 = biological target: T10, EPHA4 (Homo sapiens, UniProt P54764); assay: KINOMEscan; assay type: binding; details: read-out: Percent Control
T10 construct: purchased Eurofins DiscoverX KINOMEscan (scanMAX 468)

EPHA5 = biological target: T11, EPHA5 (Homo sapiens, UniProt P54756); assay: KINOMEscan; assay type: binding; details: read-out: Percent Control
T11 construct: purchased Eurofins DiscoverX KINOMEscan (scanMAX 468)

EPHB1 = biological target: T12, EPHB1 (Homo sapiens, UniProt P54762); assay: KINOMEscan; assay type: binding; details: read-out: Percent Control
T12 construct: purchased Eurofins DiscoverX KINOMEscan (scanMAX 468)

ERK3 = biological target: T13, ERK3 (Homo sapiens, UniProt Q16659); assay: KINOMEscan; assay type: binding; details: read-out: Percent Control
T13 construct: purchased Eurofins DiscoverX KINOMEscan (scanMAX 468)

ERK5 = biological target: T14, ERK5 (Homo sapiens, UniProt Q13164); assay: KINOMEscan; assay type: binding; details: read-out: Percent Control
T14 construct: purchased Eurofins DiscoverX KINOMEscan (scanMAX 468)

ERN1 = biological target: T15, ERN1 (Homo sapiens, UniProt O75460); assay: KINOMEscan; assay type: binding; details: read-out: Percent Control
T15 construct: purchased Eurofins DiscoverX KINOMEscan (scanMAX 468)

FGFR1 = biological target: T16, FGFR1 (Homo sapiens, UniProt P11362); assay: KINOMEscan; assay type: binding; details: read-out: Percent Control
T16 construct: purchased Eurofins DiscoverX KINOMEscan (scanMAX 468)

FGFR2 = biological target: T17, FGFR2 (Homo sapiens, UniProt P21802); assay: KINOMEscan; assay type: binding; details: read-out: Percent Control
T17 construct: purchased Eurofins DiscoverX KINOMEscan (scanMAX 468)

FGFR3(G697C) = biological target: T18, FGFR3(G697C) (Homo sapiens, UniProt P22607, G697C); assay: KINOMEscan; assay type: binding; details: read-out: Percent Control
T18 construct: purchased Eurofins DiscoverX KINOMEscan (scanMAX 468)

FGFR4 = biological target: T19, FGFR4 (Homo sapiens, UniProt P22455); assay: KINOMEscan; assay type: binding; details: read-out: Percent Control
T19 construct: purchased Eurofins DiscoverX KINOMEscan (scanMAX 468)

ICK = biological target: T20, ICK (Homo sapiens, UniProt Q9UPZ9); assay: KINOMEscan; assay type: binding; details: read-out: Percent Control
T20 construct: purchased Eurofins DiscoverX KINOMEscan (scanMAX 468)

[2] = biological target: T21, JAK1(JH2domain-pseudokinase) (Homo sapiens, UniProt P23458); assay: KINOMEscan; assay type: binding; details: read-out: Percent Control
T21 construct: JAK1(JH2domain-pseudokinase); purchased Eurofins DiscoverX KINOMEscan (scanMAX 468)

KIT(V559D) = biological target: T22, KIT(V559D) (Homo sapiens, UniProt P10721, V559D); assay: KINOMEscan; assay type: binding; details: read-out: Percent Control
T22 construct: purchased Eurofins DiscoverX KINOMEscan (scanMAX 468)

LRRK2 = biological target: T23, LRRK2 (Homo sapiens, UniProt Q5S007); assay: KINOMEscan; assay type: binding; details: read-out: Percent Control
T23 construct: purchased Eurofins DiscoverX KINOMEscan (scanMAX 468)

MEK3 = biological target: T24, MEK3 (Homo sapiens, UniProt P46734); assay: KINOMEscan; assay type: binding; details: read-out: Percent Control
T24 construct: purchased Eurofins DiscoverX KINOMEscan (scanMAX 468)

MEK6 = biological target: T25, MEK6 (Homo sapiens, UniProt P52564); assay: KINOMEscan; assay type: binding; details: read-out: Percent Control
T25 construct: purchased Eurofins DiscoverX KINOMEscan (scanMAX 468)

MST4 = biological target: T26, MST4 (Homo sapiens, UniProt Q9P289); assay: KINOMEscan; assay type: binding; details: read-out: Percent Control
T26 construct: purchased Eurofins DiscoverX KINOMEscan (scanMAX 468)

MTOR = biological target: T27, MTOR (Homo sapiens, UniProt P42345); assay: KINOMEscan; assay type: binding; details: read-out: Percent Control
T27 construct: purchased Eurofins DiscoverX KINOMEscan (scanMAX 468)

MYO3A = biological target: T28, MYO3A (Homo sapiens, UniProt Q8NEV4); assay: KINOMEscan; assay type: binding; details: read-out: Percent Control
T28 construct: purchased Eurofins DiscoverX KINOMEscan (scanMAX 468)

NEK4 = biological target: T29, NEK4 (Homo sapiens, UniProt P51957); assay: KINOMEscan; assay type: binding; details: read-out: Percent Control
T29 construct: purchased Eurofins DiscoverX KINOMEscan (scanMAX 468)

NEK5 = biological target: T30, NEK5 (Homo sapiens, UniProt Q6P3R8); assay: KINOMEscan; assay type: binding; details: read-out: Percent Control
T30 construct: purchased Eurofins DiscoverX KINOMEscan (scanMAX 468)

PIK3CA(C420R) = biological target: T31, PIK3CA(C420R) (Homo sapiens, UniProt P42336, C420R); assay: KINOMEscan; assay type: binding; details: read-out: Percent Control
T31 construct: purchased Eurofins DiscoverX KINOMEscan (scanMAX 468)

PIM2 = biological target: T32, PIM2 (Homo sapiens, UniProt Q9P1W9); assay: KINOMEscan; assay type: binding; details: read-out: Percent Control
T32 construct: purchased Eurofins DiscoverX KINOMEscan (scanMAX 468)

RIPK1 = biological target: T33, RIPK1 (Homo sapiens, UniProt Q13546); assay: KINOMEscan; assay type: binding; details: read-out: Percent Control
T33 construct: purchased Eurofins DiscoverX KINOMEscan (scanMAX 468)

[3] = biological target: T34, RPS6KA4(Kin.Dom.1-N-terminal) (Homo sapiens, UniProt O75676); assay: KINOMEscan; assay type: binding; details: read-out: Percent Control
T34 construct: RPS6KA4(Kin.Dom.1-N-terminal); purchased Eurofins DiscoverX KINOMEscan (scanMAX 468)

[4] = biological target: T35, RSK1(Kin.Dom.2-C-terminal) (Homo sapiens, UniProt Q15418); assay: KINOMEscan; assay type: binding; details: read-out: Percent Control
T35 construct: RSK1(Kin.Dom.2-C-terminal); purchased Eurofins DiscoverX KINOMEscan (scanMAX 468)

[5] = biological target: T36, RSK2(Kin.Dom.1-N-terminal) (Homo sapiens, UniProt P51812); assay: KINOMEscan; assay type: binding; details: read-out: Percent Control
T36 construct: RSK2(Kin.Dom.1-N-terminal); purchased Eurofins DiscoverX KINOMEscan (scanMAX 468)

SNRK = biological target: T37, SNRK (Homo sapiens, UniProt Q9NRH2); assay: KINOMEscan; assay type: binding; details: read-out: Percent Control
T37 construct: purchased Eurofins DiscoverX KINOMEscan (scanMAX 468)

TTK = biological target: T38, TTK (Homo sapiens, UniProt P33981); assay: KINOMEscan; assay type: binding; details: read-out: Percent Control
T38 construct: purchased Eurofins DiscoverX KINOMEscan (scanMAX 468)

YSK4 = biological target: T39, YSK4 (Homo sapiens, UniProt Q56UN5); assay: KINOMEscan; assay type: binding; details: read-out: Percent Control
T39 construct: purchased Eurofins (KINOMEscan, DiscoverX)

T11 sequence (P54756 25-1037): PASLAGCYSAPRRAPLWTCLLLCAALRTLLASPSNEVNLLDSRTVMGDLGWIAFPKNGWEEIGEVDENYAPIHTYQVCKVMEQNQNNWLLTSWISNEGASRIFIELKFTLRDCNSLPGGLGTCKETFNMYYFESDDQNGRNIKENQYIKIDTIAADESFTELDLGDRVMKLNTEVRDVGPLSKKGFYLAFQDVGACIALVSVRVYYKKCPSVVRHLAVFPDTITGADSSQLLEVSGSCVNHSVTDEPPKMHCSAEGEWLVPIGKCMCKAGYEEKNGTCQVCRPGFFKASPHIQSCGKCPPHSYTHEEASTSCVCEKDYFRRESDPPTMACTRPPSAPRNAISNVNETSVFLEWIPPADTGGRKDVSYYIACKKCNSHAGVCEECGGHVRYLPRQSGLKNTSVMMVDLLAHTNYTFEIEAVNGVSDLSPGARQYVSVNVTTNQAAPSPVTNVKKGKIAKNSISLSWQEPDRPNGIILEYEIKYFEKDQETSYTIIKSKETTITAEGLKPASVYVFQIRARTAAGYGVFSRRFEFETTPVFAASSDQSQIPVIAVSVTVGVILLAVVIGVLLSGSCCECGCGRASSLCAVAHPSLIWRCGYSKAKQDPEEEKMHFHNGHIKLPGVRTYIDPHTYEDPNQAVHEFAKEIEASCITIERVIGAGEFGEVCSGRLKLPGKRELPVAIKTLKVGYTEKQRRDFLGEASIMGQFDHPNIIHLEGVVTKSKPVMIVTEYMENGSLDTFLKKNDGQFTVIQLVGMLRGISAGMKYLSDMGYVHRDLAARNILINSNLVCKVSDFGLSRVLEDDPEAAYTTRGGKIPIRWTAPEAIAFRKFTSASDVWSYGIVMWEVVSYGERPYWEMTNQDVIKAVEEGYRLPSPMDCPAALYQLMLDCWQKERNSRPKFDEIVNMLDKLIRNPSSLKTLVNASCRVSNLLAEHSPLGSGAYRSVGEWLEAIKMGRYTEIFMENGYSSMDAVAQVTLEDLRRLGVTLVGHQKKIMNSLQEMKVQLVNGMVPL
T36 sequence (P51812 1-397 limits assumed): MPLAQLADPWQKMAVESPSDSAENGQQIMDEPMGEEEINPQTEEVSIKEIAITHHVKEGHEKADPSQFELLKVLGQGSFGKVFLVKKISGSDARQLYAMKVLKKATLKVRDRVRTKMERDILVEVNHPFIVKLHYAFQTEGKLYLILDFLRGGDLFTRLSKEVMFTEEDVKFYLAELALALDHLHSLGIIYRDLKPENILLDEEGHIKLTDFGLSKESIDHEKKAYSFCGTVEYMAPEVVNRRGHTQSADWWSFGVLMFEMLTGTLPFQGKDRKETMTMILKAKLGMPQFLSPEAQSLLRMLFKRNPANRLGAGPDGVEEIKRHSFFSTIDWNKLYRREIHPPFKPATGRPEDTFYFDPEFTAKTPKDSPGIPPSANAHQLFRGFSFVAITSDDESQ
T35 sequence (Q15418 392-735 limits assumed): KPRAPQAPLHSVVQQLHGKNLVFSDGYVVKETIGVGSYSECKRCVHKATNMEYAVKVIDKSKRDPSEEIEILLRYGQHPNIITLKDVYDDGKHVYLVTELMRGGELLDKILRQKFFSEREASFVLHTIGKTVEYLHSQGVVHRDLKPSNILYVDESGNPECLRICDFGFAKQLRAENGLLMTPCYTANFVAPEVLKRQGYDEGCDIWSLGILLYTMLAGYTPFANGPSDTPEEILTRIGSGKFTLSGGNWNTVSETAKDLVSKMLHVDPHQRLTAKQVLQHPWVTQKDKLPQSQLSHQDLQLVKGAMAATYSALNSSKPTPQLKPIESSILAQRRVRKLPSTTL
T30 sequence (Q6P3R8 whole entry): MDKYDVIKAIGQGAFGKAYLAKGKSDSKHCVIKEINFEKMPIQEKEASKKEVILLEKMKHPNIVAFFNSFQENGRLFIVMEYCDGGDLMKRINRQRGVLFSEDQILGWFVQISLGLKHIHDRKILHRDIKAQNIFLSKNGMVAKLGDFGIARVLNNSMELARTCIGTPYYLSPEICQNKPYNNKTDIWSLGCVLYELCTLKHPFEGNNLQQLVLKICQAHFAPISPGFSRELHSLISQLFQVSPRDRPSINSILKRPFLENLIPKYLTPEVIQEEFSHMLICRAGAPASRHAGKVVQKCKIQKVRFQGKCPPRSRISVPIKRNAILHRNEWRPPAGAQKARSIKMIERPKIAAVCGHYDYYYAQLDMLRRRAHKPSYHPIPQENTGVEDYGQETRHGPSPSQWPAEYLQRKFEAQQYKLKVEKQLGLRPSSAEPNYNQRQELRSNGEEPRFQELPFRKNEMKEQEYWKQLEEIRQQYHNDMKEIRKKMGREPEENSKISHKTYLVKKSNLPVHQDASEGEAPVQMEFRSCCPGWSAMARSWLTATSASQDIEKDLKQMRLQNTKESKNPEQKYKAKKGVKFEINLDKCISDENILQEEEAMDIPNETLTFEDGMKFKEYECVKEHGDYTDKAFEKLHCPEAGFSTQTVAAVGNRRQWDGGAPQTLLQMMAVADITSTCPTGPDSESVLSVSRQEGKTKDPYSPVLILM
T25 sequence (P52564 whole entry): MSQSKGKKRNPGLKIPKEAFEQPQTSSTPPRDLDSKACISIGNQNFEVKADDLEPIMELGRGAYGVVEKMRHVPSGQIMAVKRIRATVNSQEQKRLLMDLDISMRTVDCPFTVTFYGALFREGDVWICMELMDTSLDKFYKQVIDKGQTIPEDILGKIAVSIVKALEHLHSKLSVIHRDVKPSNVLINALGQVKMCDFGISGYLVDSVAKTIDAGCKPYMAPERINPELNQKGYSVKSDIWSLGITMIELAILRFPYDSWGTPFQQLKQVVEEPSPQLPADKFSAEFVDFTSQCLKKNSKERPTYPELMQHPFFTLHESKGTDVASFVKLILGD
T15 sequence (O75460 19-977): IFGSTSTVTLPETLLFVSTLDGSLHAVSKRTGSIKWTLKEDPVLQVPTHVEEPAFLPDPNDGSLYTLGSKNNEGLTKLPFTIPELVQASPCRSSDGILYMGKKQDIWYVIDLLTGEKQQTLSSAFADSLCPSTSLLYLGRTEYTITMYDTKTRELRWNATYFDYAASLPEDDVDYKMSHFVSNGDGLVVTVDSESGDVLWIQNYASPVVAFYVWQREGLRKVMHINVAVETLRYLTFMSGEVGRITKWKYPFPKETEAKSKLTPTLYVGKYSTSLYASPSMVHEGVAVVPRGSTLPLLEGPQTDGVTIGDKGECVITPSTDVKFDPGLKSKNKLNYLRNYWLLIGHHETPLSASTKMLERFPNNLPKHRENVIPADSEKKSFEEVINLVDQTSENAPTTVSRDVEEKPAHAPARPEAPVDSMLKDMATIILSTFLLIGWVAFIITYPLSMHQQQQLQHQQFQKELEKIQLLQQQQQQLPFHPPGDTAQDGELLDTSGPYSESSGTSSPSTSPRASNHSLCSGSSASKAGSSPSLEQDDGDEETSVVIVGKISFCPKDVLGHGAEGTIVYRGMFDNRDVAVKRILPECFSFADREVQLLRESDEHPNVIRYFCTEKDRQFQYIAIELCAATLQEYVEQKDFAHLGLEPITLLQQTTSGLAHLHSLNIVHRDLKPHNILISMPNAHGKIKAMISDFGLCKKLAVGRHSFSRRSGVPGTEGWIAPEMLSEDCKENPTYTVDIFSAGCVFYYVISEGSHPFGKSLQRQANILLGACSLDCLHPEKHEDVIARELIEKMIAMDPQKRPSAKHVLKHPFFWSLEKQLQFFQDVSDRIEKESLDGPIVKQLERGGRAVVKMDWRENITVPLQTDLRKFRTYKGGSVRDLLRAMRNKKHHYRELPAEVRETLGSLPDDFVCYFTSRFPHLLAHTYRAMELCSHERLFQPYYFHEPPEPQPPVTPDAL
T31 sequence (P42336 whole entry C420R): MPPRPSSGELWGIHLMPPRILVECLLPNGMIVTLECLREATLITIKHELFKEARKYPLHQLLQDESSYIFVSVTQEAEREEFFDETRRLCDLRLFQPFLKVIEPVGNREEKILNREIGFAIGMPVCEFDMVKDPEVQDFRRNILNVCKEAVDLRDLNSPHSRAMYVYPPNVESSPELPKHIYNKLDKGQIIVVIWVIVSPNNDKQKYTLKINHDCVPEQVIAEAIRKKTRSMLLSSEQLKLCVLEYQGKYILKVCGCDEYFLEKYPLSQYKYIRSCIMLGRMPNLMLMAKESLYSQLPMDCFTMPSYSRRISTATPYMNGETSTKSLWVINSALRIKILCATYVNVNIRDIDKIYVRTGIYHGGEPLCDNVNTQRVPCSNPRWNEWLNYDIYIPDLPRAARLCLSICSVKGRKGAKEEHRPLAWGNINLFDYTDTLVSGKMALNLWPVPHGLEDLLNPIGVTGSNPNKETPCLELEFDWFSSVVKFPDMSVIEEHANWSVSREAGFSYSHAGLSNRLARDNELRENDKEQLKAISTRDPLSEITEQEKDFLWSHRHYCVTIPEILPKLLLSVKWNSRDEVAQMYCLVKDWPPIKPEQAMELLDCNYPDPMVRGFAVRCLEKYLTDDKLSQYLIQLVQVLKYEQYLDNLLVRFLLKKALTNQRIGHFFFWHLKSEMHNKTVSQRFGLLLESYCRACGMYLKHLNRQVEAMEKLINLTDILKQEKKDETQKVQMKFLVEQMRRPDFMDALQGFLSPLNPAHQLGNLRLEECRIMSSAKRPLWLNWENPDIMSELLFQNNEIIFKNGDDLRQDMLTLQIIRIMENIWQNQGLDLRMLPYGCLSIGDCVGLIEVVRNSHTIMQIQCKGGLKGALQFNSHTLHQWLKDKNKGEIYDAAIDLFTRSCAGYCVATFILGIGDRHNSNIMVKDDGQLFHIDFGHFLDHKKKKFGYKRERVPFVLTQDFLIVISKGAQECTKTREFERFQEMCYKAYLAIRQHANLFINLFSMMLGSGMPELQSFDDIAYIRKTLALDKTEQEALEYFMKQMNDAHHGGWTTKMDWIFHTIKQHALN

Cc1ccc(-n2cc(COc3cccc4cnc(Nc5cccc(Cl)c5)nc34)nn2)c([N+](=O)[O-])c1 [DB18]
S-Score(25) (panel of 468 kinases): 0.015 | remaining binding at 1 µM [1]: 100% | remaining binding at 1 µM (ABL1-nonphosphorylated): 85% | remaining binding at 1 µM (ABL1-phosphorylated): 98% | remaining binding at 1 µM (AKT3): 100% | remaining binding at 1 µM (BTK): 100% | remaining binding at 1 µM (CASK): 99% | remaining binding at 1 µM (CDK3): 100% | remaining binding at 1 µM (EGFR(G719S)): 100% | remaining binding at 1 µM (EPHA3): 100% | remaining binding at 1 µM (EPHA4): 88% | remaining binding at 1 µM (EPHA5): 100% | remaining binding at 1 µM (EPHB1): 100% | remaining binding at 1 µM (ERK3): 100% | remaining binding at 1 µM (ERK5): 100% | remaining binding at 1 µM (ERN1): 94% | remaining binding at 1 µM (FGFR1): 100% | remaining binding at 1 µM (FGFR2): 100% | remaining binding at 1 µM (FGFR3(G697C)): 97% | remaining binding at 1 µM (FGFR4): 100% | remaining binding at 1 µM (ICK): 81% | remaining binding at 1 µM [2]: 100% | remaining binding at 1 µM (KIT(V559D)): 100% | remaining binding at 1 µM (LRRK2): 100% | remaining binding at 1 µM (MEK3): 98% | remaining binding at 1 µM (MEK6): 99% | remaining binding at 1 µM (MST4): 97% | remaining binding at 1 µM (MTOR): 55% | remaining binding at 1 µM (MYO3A): 100% | remaining binding at 1 µM (NEK4): 99% | remaining binding at 1 µM (NEK5): 100% | remaining binding at 1 µM (PIK3CA(C420R)): 100% | remaining binding at 1 µM (PIM2): 100% | remaining binding at 1 µM (RIPK1): 100% | remaining binding at 1 µM [3]: 100% | remaining binding at 1 µM [4]: 100% | remaining binding at 1 µM [5]: 100% | remaining binding at 1 µM (SNRK): 100% | remaining binding at 1 µM (TTK): 86% | remaining binding at 1 µM (YSK4): 34%
